# Data as given in US20240327429A1, “[1,3]Thiazolo[4,5-d]-pyrimidon-7-ones as inhibitors of NOX4” (Boehringer Ingelheim International GmbH, priority 2023, published 2024).
# Experiments:
# NOX2 = biological target: T1, NOX2 (Homo sapiens, UniProt P04839); assay: NOX2 inhibition assay (L-012), human blood-derived granulocytes; assay type: cell-based; details: fMLP/PMA stimulated
# T1 construct: endogenous in cells; host or cells: freshly isolated human blood-derived granulocytes
# T1 sequence (P04839 2-570 limits assumed): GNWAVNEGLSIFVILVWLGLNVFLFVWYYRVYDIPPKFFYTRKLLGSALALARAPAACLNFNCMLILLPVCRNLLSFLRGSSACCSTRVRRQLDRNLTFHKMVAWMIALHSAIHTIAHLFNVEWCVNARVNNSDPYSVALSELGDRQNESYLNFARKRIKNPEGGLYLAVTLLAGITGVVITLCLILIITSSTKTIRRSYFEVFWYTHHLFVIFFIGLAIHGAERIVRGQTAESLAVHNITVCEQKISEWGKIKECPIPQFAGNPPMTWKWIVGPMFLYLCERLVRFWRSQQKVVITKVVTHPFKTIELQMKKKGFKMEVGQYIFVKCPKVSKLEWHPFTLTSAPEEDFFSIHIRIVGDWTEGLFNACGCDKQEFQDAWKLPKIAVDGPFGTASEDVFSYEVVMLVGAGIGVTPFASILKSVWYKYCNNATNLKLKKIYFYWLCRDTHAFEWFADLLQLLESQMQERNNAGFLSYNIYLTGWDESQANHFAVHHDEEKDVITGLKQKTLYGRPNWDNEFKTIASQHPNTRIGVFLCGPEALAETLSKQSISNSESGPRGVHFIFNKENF
# T1 sequence (P13498 2-195 partner limits assumed): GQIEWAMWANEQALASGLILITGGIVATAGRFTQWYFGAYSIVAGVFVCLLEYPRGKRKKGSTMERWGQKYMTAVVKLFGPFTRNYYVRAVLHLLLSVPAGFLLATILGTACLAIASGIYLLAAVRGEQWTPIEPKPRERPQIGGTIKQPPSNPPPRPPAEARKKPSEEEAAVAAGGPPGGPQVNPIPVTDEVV
# Protocol: Evaluation of the NOX4 inhibitors on NOX2 activity is assessed in human blood-derived granulocytes.
# Afterwards, freshly isolated granulocytes are added to the wells containing the compounds in assay buffer and incubated for 1 h at 37° C. Next, a solution of Nformylmethionine-leucyl-phenylalanine (fMLP; 730 nM), phorbol myristate acetate (PMA, 100 nM) (stimuli of ROS production) and L-012 (200 μM, ROS indicator) is added to the wells and the cells are incubated for additional 30 mins at 37° C. Afterwards luminescence is measured in a SpectraMax M5 microplate reader.
# human NOX5 (hNOX5) = biological target: T2, human NOX5 (hNOX5) (Homo sapiens, UniProt Q96PH1); assay: NOX5 inhibition assay (L-012), HEK293 cells stably overexpressing human NOX5; assay type: cell-based; details: HEK293-hNOX5, PMA stimulated
# T2 construct: expressed in transfected cells; host or cells: HEK293
# T2 sequence (Q96PH1 1-765): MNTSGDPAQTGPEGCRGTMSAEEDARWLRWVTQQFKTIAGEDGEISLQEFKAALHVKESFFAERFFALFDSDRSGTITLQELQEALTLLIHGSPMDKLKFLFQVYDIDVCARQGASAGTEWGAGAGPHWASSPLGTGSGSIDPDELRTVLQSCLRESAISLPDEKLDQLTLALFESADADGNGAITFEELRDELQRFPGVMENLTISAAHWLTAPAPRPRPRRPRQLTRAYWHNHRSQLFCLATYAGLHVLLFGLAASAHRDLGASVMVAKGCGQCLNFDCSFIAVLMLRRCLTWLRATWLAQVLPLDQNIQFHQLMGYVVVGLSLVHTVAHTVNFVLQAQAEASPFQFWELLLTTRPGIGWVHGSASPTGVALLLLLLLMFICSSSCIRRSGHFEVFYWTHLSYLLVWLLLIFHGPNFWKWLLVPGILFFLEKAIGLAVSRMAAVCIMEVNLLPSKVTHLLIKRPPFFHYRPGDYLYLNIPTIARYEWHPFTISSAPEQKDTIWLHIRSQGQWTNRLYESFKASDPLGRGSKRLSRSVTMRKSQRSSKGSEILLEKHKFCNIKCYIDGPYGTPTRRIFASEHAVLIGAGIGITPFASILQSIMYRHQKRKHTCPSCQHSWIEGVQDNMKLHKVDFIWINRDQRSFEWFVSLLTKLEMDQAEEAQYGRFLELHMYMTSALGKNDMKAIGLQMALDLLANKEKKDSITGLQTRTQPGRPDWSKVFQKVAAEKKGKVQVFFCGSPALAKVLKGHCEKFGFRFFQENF
# Protocol: The synthetic gene hNOX5 (Accession: Q96PH1) is cloned into pcDNA3.1_Zeo. […] The final construct is verified by sequencing.
# Evaluation of the NOX4 inhibitors on NOX5 activity is assessed in HEK293 cells stably overexpressing human NOX5 (hNOX5).
# Cells are seeded in 384 well plates over-night. […] Cells are then stimulated with PMA at 0.1 μM to induce NOX5-dependent ROS production. […] Luminescence is measured with an PHERAstar multimode reader.
# human hepatocytes = assay: Evaluation of hepatocyte clearance (metabolic stability); assay type: in vitro ADME; details: 1 μM test compound, 5% human serum, Table 3
# Method in brief: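 Cryopreserved human hepatocytes (typically 1 Mio cells/mL) in supplemented DMEM with 5% human serum incubated with 1 μM compound (0.05% DMSO) at 37° C, sampled to 6 hours. Parent decline by HPLC-MS/MS; CLint = Dose/AUC, scaled to in vivo blood CL via well-stirred model.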
IC50 (NOX2),IC50 (human NOX5 (hNOX5)),Qh [%] (human hepatocytes),SMILES
> 100 µM,> 100 µM,53%,"O=c1c2scnc2nc(SCc2ccc(Cl)cc2F)n1-c1cc(F)c(O)c(F)c1 [Example 2, 5-((4-Chloro-2-fluorobenzyl)thio)-6-(3,5-difluoro-4-hydroxyphenyl)thiazolo[4,5-d]-pyrimidin-7(6H)-one]"
> 100 µM,> 100 µM,41%,Cc1cc(F)cc(C)c1CSc1nc2ncsc2c(=O)n1-c1cc(F)c(O)c(F)c1 [Example 4]
> 100 µM,57.4 µM,41%,O=c1c2scnc2nc(SCc2ccc(C(F)(F)F)cc2F)n1-c1ccc(O)nc1 [Example 26]
> 100 µM,55.7 µM,15%,"O=c1c2scnc2nc(SCc2ccc(C(F)(F)F)cc2)n1-c1cnc(O)c(F)c1 [Example 32, 6-(5-Fluoro-6-hydroxypyridin-3-yl)-5-((4-(trifluoromethyl)benzyl)thio)thiazolo[4,5-d]pyrimidin-7(6H)-one]"
13.4 µM,10.2 µM,73%,O=c1c2scnc2nc(SCc2c(F)cc(F)cc2F)n1-c1ccc(O)cc1F [Example 14]
> 100 µM,36 µM,73%,O=c1c2scnc2nc(SCc2c(F)cc(F)cc2F)n1-c1ccc(O)c(Cl)c1 [Example 16]
> 100 µM,47.6 µM,33%,Cc1cc(Cl)ccc1CSc1nc2ncsc2c(=O)n1-c1cnc(O)nc1 [Example 54]
> 100 µM,> 100 µM,47%,O=c1c2scnc2nc(SCc2ccc(Cl)cc2)n1-c1ccc(O)nn1 [Example 64]
> 100 µM,> 100 µM,<4%,"O=c1c2scnc2nc(SCc2c(F)cc(F)cc2F)n1-c1cnc(O)cn1 [Example 69, 6-(5-Hydroxypyrazin-2-yl)-5-((2,4,6-trifluorobenzyl)thio)thiazolo[4,5-d]pyrimidin-7(6H)-one]"
> 100 µM,60.2 µM,19%,"O=c1c2scnc2nc(SCc2c(F)cc(F)cc2F)n1-c1ccc(O)nc1F [Example 50, 6-(2-Fluoro-6-hydroxypyridin-3-yl)-5-((2,4,6-trifluorobenzyl)thio)thiazolo[4,5-d]-pyrimidin-7(6H)-one]"
10.3 µM,> 100 µM,45%,Cc1cc(F)cc(C)c1CSc1nc2ncsc2c(=O)n1-c1ccc(O)nc1 [Example 24]
> 30 µM,> 100 µM,15%,"N#Cc1cc(-n2c(SCc3c(F)cc(F)cc3F)nc3ncsc3c2=O)cnc1O [Example 47, 2-Hydroxy-5-(7-oxo-5-((2,4,6-trifluorobenzyl)thio)thiazolo[4,5-d]pyrimidin-6(7H)-yl)-nicotinonitrile]"
